Experiment: gradient 5% acetonitrile 3 min, to 50% in 2 min, to 85% in 15 min, held 3 min, 100 µL/min
Settings: column: Zorbax Extend-C18 2.1 x 50 mm; eluents: water / acetonitrile, 0.1% formic acid
How it was run: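 Data were gathered over 3 months by HPLC coupled to a quadrupole time-of-flight mass spectrometer, operated in positive and negative ionization mode. Mixtures of ~100 pure standards ran on a Zorbax Extend-C18 column (2.1 × 50 mm, 1.8 μm) at 100 μL/min, with water and acetonitrile each containing 0.1% formic acid and dead and dwell volumes of 40 μL and 900 μL. Retention time was read from adduct peaks picked by computer and checked manually.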

Row | Structure (SMILES) | RP-LC retention time [s]
1 | CCc1c(C)nc2ncnn2c1NC(C)C | 670
2 | CC1CCCC(C)N1C(=O)CSc1nnc(-c2ccc3c(c2)OCCCO3)n1C (stereo not given) | 780
3 | O=C(Cn1cccn1)N1CC(F)(F)C[C@H]1c1nc(C2CC2)no1 | 723
4 | CCN1CCCC1CNC(=O)Cn1c(=O)c2cccn2c2ccc(F)cc21 (stereo not given) | 614
5 | O=C(Nc1nc(-c2cc(Cl)sc2Cl)cs1)c1ccc([N+](=O)[O-])s1 | 1310
6 | Cc1ccc(N2C(=O)C3N=NN(Cc4nc(-c5ccccc5)no4)C3C2=O)cc1C (stereo not given) | 1020
7 | CCc1cccc(NC(=O)Cn2c(N)nc(C)cc2=O)c1 | 618
8 | O=C(C1CCN(Cc2cnn(-c3ccccc3)c2-n2cccc2)CC1)N1CCN(c2ccccc2)CC1 | 750
9 | CCN1C(=O)c2cccnc2Sc2cc(CNC(=O)c3ccccc3OC)ccc21 | 772
10 | Cc1ccc2c(Nc3ccccc3C)c(-c3nc(C)no3)cnc2n1 | 743
11 | COc1ccc(NC(=O)Cn2c(=O)n(-c3ccc(F)cc3)c(=O)c3c2cc(C)n3C)cc1 | 812
12 | CCc1nc(-c2ccc3c(c2)CCN3C(=O)Cc2ccc(OC)cc2)no1 | 1040
13 | CC(C)C(=O)N1CCc2c(c(-c3nncn3C(C)C)nn2C)C1 | 639
14 | COc1ccc(CC(=O)Nc2cccc(-c3ccc4nnc(-c5ccncc5)n4n3)c2)cc1 | 624
15 | CCOc1cccc(-c2noc(Cn3ncn4nc(-c5cc(C)ccc5C)cc4c3=O)n2)c1 | 1280
16 | COc1ccc(-c2ccc(=O)n(Cc3nc(-c4ccccc4Cl)no3)n2)cc1 | 962
17 | COc1ccc(C2CC(=O)N(c3ccc(F)cc3F)C(=O)C2)cc1OC | 870
18 | CCCNC(=O)CCc1nc2ccccc2n(CC(=O)NCc2ccc(F)cc2)c1=O | 750
19 | COc1ccc(OC)c(-n2cc(C(=O)O)c3c2C(C(F)(F)F)CC(=O)N3)c1 (stereo not given) | 730
20 | Cc1ccc(-c2cn3c4c(=O)n(C)c(=O)n(C)c4nc3n2Cc2ccc(F)cc2)cc1 | 983
21 | Cc1cccc(NC(=O)Cn2c(=O)n(-c3cccc(C)c3)c(=O)c3c2cc(C)n3C)c1 | 888
22 | Cc1ccc(C2Cn3nnc(-c4nc(-c5cccc(Cl)c5)no4)c3CO2)c(C)c1 (stereo not given) | 1400
23 | Cc1ccc(N2CCCS2(=O)=O)cc1NS(=O)(=O)c1c(C)noc1C | 866

Row | Structure (SMILES) | RP-LC retention time [s]
24 | Cc1nc(-c2cccs2)c(CCC(=O)NC2CCCC2)s1 | 773
25 | CCN(CC)CCNc1ccc(-c2nc(-c3ccc(F)cc3)no2)nn1 | 667
26 | Cc1ccccc1C(=O)NCCc1cn(CC(C)C)c2ncccc12 | 808
27 | Brc1cccc(-c2nc3ccccn3c2Nc2ccc3c(c2)OCO3)c1 | 726
28 | COc1ccc(NC(=O)Cn2ncc3c(c2=O)N(C2CC2)C(=O)CS3)cc1OC | 647
29 | COc1ccc(-c2cc(N3CCC(NC(=O)c4ccccc4OC)C3)n[nH]2)cc1 (stereo not given) | 712
30 | COc1ccc(-n2ncc3c(=O)n(Cc4nc(-c5cccc(C(F)(F)F)c5)no4)cnc32)cc1 | 1130
31 | Cc1noc([C@@H]2CN(C(=O)c3ccoc3C)C[C@H]2C(N)=O)n1 | 599
32 | Cc1nc(C(=O)Nc2ccc(F)cc2C)c(C)o1 | 889
33 | CCCn1cnc2c(-c3ccccc3)csc2c1=O | 922
34 | Cn1cc(-c2cc3n(n2)CCC(=O)N3CCCC(=O)NCC2COCCO2)c2ccccc21 (stereo not given) | 680
35 | CC(C)Sc1ccc(CC(=O)NCc2ccsc2)cc1 | 908
36 | CCCNC(=O)Cn1c(C)nc2ccccc21 | 571
37 | Cc1cccc(NC(=O)Cn2ccc3ccn(C)c3c2=O)c1 | 772
38 | CCOC(=O)CNC(=O)N1CCN(c2nc3ccccc3n2CC)CC1 | 602
39 | CCOC(=O)c1c(C)c(C(=O)C(C)N(C(=O)c2ccc(Cl)cc2)C2CC2)c(C)n1CC (stereo not given) | 1140
40 | Cc1ccc2c(c1)OCC(=O)N2Cc1nc(-c2cccc(Br)c2)no1 | 1180
41 | Nc1nnc(CCS(=O)(=O)c2ccccc2)o1 | 565
42 | Cn1ncc2c3ccccc3n(CCCC(=O)NCc3ccc4c(c3)OCO4)c2c1=O | 751
43 | COCCNc1c(-c2ccc(F)cc2)nc2sc(C(=O)NCc3ccncc3)c(C)n12 | 625
44 | CCOC(=O)c1[nH]c(C)c(C(=O)N2CCC(CC(=O)N3CCN(C4CCCCC4)CC3)CC2)c1C | 598
45 | CCOc1cc(=O)n2c(c1C(=O)N1CCC3(CC1)OCCO3)CCCCC2 | 639
46 | COc1ccc(Cl)cc1C(=O)Nc1nc2c(s1)Cc1c(Br)ccc(OC)c1-2 | 1350

Other lines, results leading:

Row | RP-LC retention time [s] | Structure (SMILES)
47 | 824 | Cn1ncc2c3ccccc3n(CCCC(=O)N3CCCCC3)c2c1=O
48 | 819 | Cc1cc(NC(=O)c2ccc3c(c2)nnn3Cc2ccccc2)no1
49 | 690 | COc1nccnc1NC1CCN(C(=O)c2ccco2)CC1
50 | 950 | CCc1cc(C(=O)N2CCCC2)nc2cc(-c3ccsc3)nn12
51 | 950 | O=S(=O)(c1ccccc1Cl)N1CCC(c2noc(COCC3CC3)n2)CC1
52 | 762 | CCNS(=O)(=O)c1ccc(-c2c(C)noc2C)cc1
53 | 949 | Cc1ccc(C)c(N2CCN(Cc3nc(-c4ccc(N5CCOCC5)nc4)no3)CC2)c1
54 | 702 | Cc1[nH]c(C)c(S(=O)(=O)N2CCC(C(=O)NC3CCCCCC3)CC2)c1C(=O)N1CCCC1
55 | 1220 | O=C(CCc1nc(-c2ccc(N3CCCC3)cc2)no1)Nc1ccc(Br)cc1F
56 | 1130 | Cc1cccc(N2CCN(S(=O)(=O)c3cc(-c4nnc(C5CC5)o4)co3)CC2)c1C
57 | 628 | O=C(Cn1c(CO)nc2ccccc21)N1CCCc2ccccc21
58 | 798 | COc1ccc(Cl)cc1NC(=O)Cn1cnc2nc3c(cc2c1=O)CCCC3
59 | 730 | CCOC(=O)c1ccc(NC(=O)COc2ccc(-c3nnc4n3CCCC4)cc2)cc1
60 | 878 | COC1C(=O)N(c2cccc(F)c2)C12CCN(C(=O)Nc1ccccc1)CC2 (stereo not given)
61 | 649 | C=CCn1c(C(=O)N2CCN(c3ccccn3)CC2)cc2cc(S(=O)(=O)N(C)C)ccc21
62 | 1010 | CC1=C(C(=O)N2CC(c3noc(COc4ccc(C)cc4)n3)C2)C2(CCCCC2)OC1=O
63 | 896 | Cc1ccsc1C(=O)N1CCC2(CC1)N=C(c1ccc(Cl)cc1)NO2
64 | 715 | Cc1cccn2c(NC(=O)c3ccc(Br)cc3)c(-c3ccccc3)nc12
65 | 765 | COc1cccc(NC(=O)C2CCCN(S(=O)(=O)c3c[nH]c(C(=O)N4CCCC4)c3)C2)c1 (stereo not given)
66 | 591 | CCn1c(-c2cccc(C(N)=O)c2)nc2cccnc21
67 | 766 | O=C(Nc1cnccn1)c1ccc(S(=O)(=O)N2CCCCCC2)cc1
68 | 916 | Cc1noc(C)c1-c1ccc(S(=O)(=O)NCc2ccccc2)cc1

Row | RP-LC retention time [s] | Structure (SMILES)
69 | 735 | Cc1cccc(NC(=O)C2CCCN(c3cc(=O)n(C)c(=O)n3C)C2)c1 (stereo not given)
70 | 598 | CC(C)NC(=O)N1CCCC(c2cccc(C(=O)NCCCN3CCOCC3)c2)C1 (stereo not given)
71 | 650 | NC(=O)c1ccc(-n2cccc2)nc1
72 | 998 | CCc1ccc(Oc2cc(N3CCC(C(=O)NCCc4ccccc4)CC3)ncn2)cc1
73 | 784 | CSc1ccccc1NC(=O)C(=O)NCC(c1ccc2c(c1)CCCN2C)N1CCCC1 (stereo not given)
74 | 590 | O=C(Cc1cccs1)N1CCC(Nc2ncnc3c2CCC3)CC1
75 | 905 | CC(C)c1ccc(NC(=O)Cn2nc(N3CCOCC3)c3ccccc3c2=O)cc1
76 | 774 | O=C(Cc1ccsc1)N1CCC2(CC1)N=C(c1ccccc1)NO2
77 | 619 | CC(=O)Nc1ccc2c(c1)CN(C(=O)c1ccc(C#N)cc1)C(C(=O)N(C)C)C2 (stereo not given)
78 | 672 | CC(C)=C1SC(=O)N(CC(=O)Nc2ccc(S(N)(=O)=O)cc2)C1=O
79 | 918 | CCc1ccc(NC(=O)CN2C(=O)CCCc3cc(S(=O)(=O)N4CCCC4)ccc32)cc1
80 | 1040 | CCOc1ccccc1N1CCN(C(=O)c2sc3ncccc3c2-n2cccc2)CC1
81 | 671 | Cc1ccc(C(=O)N2C[C@@H]3C[C@H](NS(C)(=O)=O)[C@H]2C3)cc1F
82 | 735 | Cc1ccc(-c2noc(-c3cccc(S(=O)(=O)N4CCN(C)CC4)c3)n2)cc1
83 | 586 | O=C1CC(NC(=O)COc2ccc(F)cc2)CN1 (stereo not given)
84 | 830 | COC(=O)c1c(NC2CCCC2)c2cccc(Cl)c2[nH]c1=O
85 | 1320 | CCOc1nc2ccccc2nc1N1CCCC(C(=O)Nc2ccc(Br)cc2C)C1 (stereo not given)
86 | 609 | O=S(=O)(Cc1cccc(Cl)c1)NCC(c1ccc(F)cc1)N1CCOCC1 (stereo not given)
87 | 639 | O=C(NCc1ccc(F)cc1)N1CCN(CCn2c(C(F)(F)F)nc3cccnc32)CC1
88 | 616 | COc1ccccc1N1CCN(CCCNS(=O)(=O)c2ccc3c(c2)CCCC(=O)N3)CC1
89 | 835 | CN(C)C(=O)c1csc(S(=O)(=O)N2CCC(C(=O)NC3CCCCCCC3)CC2)c1
90 | 648 | O=C(NC1CCN(c2ccc(=O)[nH]n2)C1)c1ccc(F)c(Cl)c1 (stereo not given)

Source: the METLIN SMRT retention time set (Domingo-Almenara et al. 2019)
